Holding throughout (type): cell-based
One data set concerns rat aorta ring. The data set can be described thus: Rat aorta assay for angiogenesis inhibition (rat aorta ring model). The following applies: for inhibition at 0.5 µg/mL: 0.5 μg/mL; for inhibition at 1 µg/mL: 1 μg/mL. An excerpt: Rat Aorta Assay for Angiogenesis Inhibition
The rat aorta ring model based on that described by Nicosia and Ottinetti (Nicosia, R. F. et al. Lab. Investigation 63: 115, 1990; Nicosia, R. F. et al. Cell. Dev. Biol. 26: 119-128, 1990), was used throughout the assay.
The agarose was made up as a 1.5% solution in distilled water and brought to the boil to form a clear solution which was poured into sterile 9 cm petri dishes, covered and allowed to cool and set.
Maintaining sterile conditions, agarose rings were obtained by punching two concentric circles, with sterile10 and 17 mm hole punches, respectively, in the agarose gel. Using sterile forceps, the rings are removed and placed, three per well in each of the 6-well plates.
The MEM was prepared according to manufacturer's directions, but before filtering through a 0.22 μm filter, HEPES and L-glutamine were added to give 10 mM and 1 mM concentrations respectively with pH adjusted to 7.4. Eight hundred mL of this medium were filtered through a 0.2 μm filter along with the antibiotics (50 mg/L Gentamycin sulphate and 2.5 mg/L Amphotericin B) and 200 mL of FCS (to give 20%) to yield one litre of medium.
The aorta was removed from a 3-4 month male Copenhagen rat and transferred to a dissecting dish where it was cleaned and carefully stripped of the fibroadipose tissue surrounding it. Rings of 0.5 mm were cut, using a fresh scalpel blade, from the length of the aorta. These were kept under sterile conditions in a biohazard hood where they were washed 12 times with MEM.
Before transferring the aortic rings to the culture plate, the bottom of each agarose well was coated with 150 μL of clotting fibrinogen. Fibrinogen was made up as a 3 mg/mL solution in MEM, while thrombin made up in distilled water to give a concentration of 50 U/mL. The fibrinogen (1 mL) and the thrombin (20 μL) reacted within 30 sec to form a solid gel.
The aortic rings were transferred to the 6-well plates, with one ring placed in the center of each agarose well. Fresh fibrinogen/thrombin was made up as before and 150 μL was used to seal in each aortic ring. The gels were rested for approximately 2 hours before the medium was added.
[…] The compounds were made up as 6 mg/mL solution in water or DMSO. The test solutions were added to each well with the medium.
Six mL of MEM were carefully added to each of three wells to become the controls. MEM, along with the test compounds were added to the remaining wells and all were covered and transferred to the CO2 Incubator at 37° C., where they were kept for the next 14 days.
However, by the fifth day, there were noticeable changes in the tissue. Micro-vessels were seen and scored. We have based the scoring method on that used by Liekens et al. (Liekens, S., et al. Oncol. Res. 9: 173-181, 1997) in which 0 meant no vessels and 10 meant maximum vessels; the score is then converted into a percentage inhibition of vessel growth.

Data set [1] in a line: Cytotoxicity assay (WST-1). The following applies: human, HeLa cervical adenocarcinoma (epithelial) cells, 100 μM test compound. As for the experimental part:
(§1) HeLa cervical adenocarcinoma (epithelial) cells were cultured in the presence of 100 μM of test compound for 72 hours and cell viability was measured using the WST-1 tetrazolium salt (cleaved to formazan by mitochondrial respiratory chain enzymes, which are only active in viable cells). The absorbance of the dye solution was measured at 450 nm. Controls included cells alone, 0.05% NP-40 plus cells (100% cytotoxicity control) and each of the compound vehicles alone, DMSO or water at the same final concentration in medium as the compound in test wells. % Cytotoxicity was calculated as follows: % cytotoxicity=100×(1-ODtest compound/ODcells alone).
(In general: Tetrazolium assays rely on reduction of a dye to a coloured formazan, in cell work by metabolically active cells.)

Data set [2] concerns HUVEC. In words: Growth inhibition assay (crystal violet). Particulars: HUVEC proliferation, 72 h. As for the experimental part: HUVEC (1.5×10^3) are plated in a 96-well plate in 100 μL of EBM-2 (Clonetic # CC3162). After 24 h (day 0), the test compound (100 μL) is added to each well at twice the desired concentration (5-7 concentration levels) in EBM-2 medium. On day 0, one plate is stained with 0.5% crystal violet in 20% methanol for 10 minutes, rinsed with water, and air-dried. The remaining plates are incubated for 72 h at 37° C. After 72 h, plates are stained with 0.5% crystal violet in 20% methanol, rinsed with water and air-dried. The stain is eluted with 1:1 solution of ethanol:0.1M sodium citrate (including day 0 plate), and absorbance is measured at 540 nm with an ELISA reader (Dynatech Laboratories). Day 0 absorbance is subtracted from the 72 h plates and data is plotted as percentage of control proliferation (vehicle treated cells). IC50 (drug concentration causing 50% inhibition) is calculated from the plotted data.

Data set [3] concerns HUVEC. In words: Cord formation assay on matrigel. The following applies: Homo sapiens, 24 h incubation. The protocol:
Matrigel (60 μL of 10 mg/mL) is placed in each well of an ice-cold 96-well plate. The plate is allowed to sit at room temperature for 15 minutes then incubated at 37° C. for 30 minutes to permit the matrigel to polymerize. In the mean time, HUVEC are prepared in EGM-2 (Clonetic # CC3162) at a concentration of 2×10^5 cells/mL. The test compound is prepared at twice the desired concentration (5 concentration levels) in the same medium. Cells (50 μL) and 2×drug […] is mixed and 200 μL of this suspension are placed in duplicate on the polymerized matrigel. After 24 h incubation, triplicate pictures are taken for each concentration using a Bioquant Image Analysis system. Drug effect (IC50) is assessed compared to untreated controls by measuring the length of cords formed and number of junctions.

Data set [4] deals with HUVEC. The data set can be described thus: Cell migration assay (Boyden chamber). Particulars: Homo sapiens, 5 h incubation. As for the experimental part: Migration is assessed using the 48-well Boyden chamber and 8 μm pore size collagen-coated (10 μg/mL rat tail collagen; Collaborative Laboratories) polycarbonate filters (Osmonics, Inc.). The bottom chamber wells receive 27-29 μL of DMEM medium alone (baseline) or medium containing chemo-attractant (bFGF, VEGF or Swiss 3T3 cell conditioned medium). The top chambers receive 45 μL of HUVEC cell suspension […] prepared in DMEM+1% BSA with or without test compound. After 5 h incubation at 37° C., the membrane is rinsed in PBS, fixed and stained in Diff-Quick solutions. The filter is placed on a glass slide with the migrated cells facing down and cells on top are removed using a Kimwipe. The testing is performed in 4-6 replicates and five fields are counted from each well. Negative unstimulated control values are subtracted from stimulated control and drug treated values and data is plotted as mean migrated cell±S.D. IC50 is calculated from the plotted data.

Data set [5] has as its system HeLa cervical adenocarcinoma (epithelial) cells. In words: Cytotoxicity assay (WST-1). Particulars: 100 μM test compound, 72 hours. As for the experimental part: as §1
Where [6] appears, read: Rattus norvegicus, 168 h, 4 μg/mL, day 7, read-out: Growth Inhibition % (Day).
[7] abbreviates: Rattus norvegicus, 120 h, day 5, read-out: Growth Inhibition % (Day).
Setting [8] is: Rattus norvegicus, 120 h, 4 μg/mL, day 5, read-out: Growth Inhibition % (Day).
[9] abbreviates: Rattus norvegicus, 120 h, 10 μg/mL, day 5, read-out: Growth Inhibition % (Day).
The mark [10] stands for this setting: Rattus norvegicus, 288 h, day 12, read-out: Growth Inhibition % (Day).
[11] abbreviates: Rattus norvegicus, 288 h, 4 μg/mL, day 12, read-out: Growth Inhibition % (Day).
Where [12] appears, read: Rattus norvegicus, 288 h, 10 μg/mL, day 12, read-out: Growth Inhibition % (Day).
The mark [13] stands for this setting: Rattus norvegicus, 168 h, 10 μg/mL, day 7, read-out: Growth Inhibition % (Day).
The mark [14] stands for this setting: Rattus norvegicus, 168 h, day 7, read-out: Growth Inhibition % (Day).

Like-named read-outs stand apart in the source and are kept apart here.

What is called inhibition is the share of the control response that was lost under treatment. As to `COc1ccc(N(Cc2ccccc2)S(=O)(=O)c2ccccc2C(=O)Nc2ccncc2)cc1` [Example 15, 2-[Benzyl-(4-methoxyphenyl)-sulfamoyl]-N-pyridin-4-yl-benzamide], in the data set on rat aorta ring (setting [6]), the inhibition at 4 µg/mL worked out at 90%.
By IC50 is commonly meant the concentration that inhibits the measured activity by half. Read a low IC50 as greater potency in that assay. Take `COc1ccc(NS(=O)(=O)c2ccccc2NC(=O)c2ccncc2)cc1` [Example 3, N-[2-(4-Methoxyphenylsulfamoyl)-phenyl]-isonicotinamide]: the figures for the inhibition at 0.5 µg/mL with rat aorta ring (setting [7]) and in the data set on rat aorta ring (setting [10]) were 100% and 60%, respectively. The inhibition at 1 µg/mL with rat aorta ring (setting [7]) and in the data set on rat aorta ring (setting [10]) was 100% throughout. The inhibition at 4 µg/mL with rat aorta ring (setting [8]) and in the data set on rat aorta ring (setting [11]) was 100% in each case. For the same molecule, the inhibition at 10 µg/mL in the data set with rat aorta ring (setting [9]) and in the data set with rat aorta ring (setting [12]) was 100% in each case. The same molecule had a cytotoxicity at 72 hours, 100 µM in data set [1] of 92%. In addition, the IC50 was 290 ± 220 nM with HUVEC [2] (Homo sapiens), 480 ± 270 nM in the data set with HUVEC [3] and 680 ± 170 nM in the data set on HUVEC [4].
Consider `COc1ccc(S(=O)(=O)Nc2ccccc2C(=O)Nc2ccncc2)cc1` [Example 8, 2-(4-Methoxybenzenesulfonylamino)-N-pyridin-4-yl-benzamide], for which the inhibition at 10 µg/mL in the data set with rat aorta ring (setting [9]) was found to be 80%; with rat aorta ring (setting [12]), 30%. This molecule also yielded a cytotoxicity at 72 hours, 100 µM in data set [1] of 84%.
`COc1ccc(NS(=O)(=O)c2ccccc2NC(=O)c2ccc(F)cc2)cc1` [Example 5, N-[2-(4-Methoxyphenylsulfamoyl)-phenyl]-4-fluorobenzamide]: the inhibition at 10 µg/mL in the data set on rat aorta ring (setting [9]) turned out to be 80%; with rat aorta ring (setting [12]) it was 70%. Also, the cytotoxicity at 72 hours, 100 µM in data set [1] came to 91%. The values for the IC50 with HUVEC [2] (Homo sapiens) and in the data set with HUVEC [3] were 7100 ± 2700 nM and 36100 ± 9400 nM, respectively.
Regarding `CC(C)c1cccc(C(C)C)c1NC(=O)c1ccccc1C(=O)Nc1c(C(C)C)cccc1C(C)C` [Example 6, N,N′-Bis-(2,6-diisopropylphenyl)-phthalamide], the inhibition at 10 µg/mL with rat aorta ring (setting [13]) is 10%.
For `COc1ccc(NS(=O)(=O)c2ccccc2C(=O)Nc2ccncc2)cc1` [Example 16], the “Growth Inhibition % (Day)” value was 70 (7) % with rat aorta ring (10 μg/mL, day 7) and 10 (12) % with rat aorta ring (10 μg/mL, day 12).
Molecule `COc1ccc(NS(=O)(=O)c2ccccc2NC(=O)c2ccc([N+](=O)[O-])cc2)cc1` [Example 4, N-[2-(4-Methoxyphenylsulfamoyl)-phenyl]-4-nitrobenzamide] yielded a cytotoxicity at 72 hours, 100 µM in data set [1] of 56%.
In the case of `COc1ccc(NS(=O)(=O)c2ccccc2NS(=O)(=O)c2cccs2)cc1` [Example 13, Thiophene-2-sulfonic acid [2-(4-methoxyphenylsulfamoyl)-phenyl]-amide], the inhibition at 0.5 µg/mL in the data set with rat aorta ring (setting [14]) and in the data set with rat aorta ring (setting [10]) was 90% each time. In addition, the inhibition at 1 µg/mL in the data set on rat aorta ring (setting [14]) and in the data set with rat aorta ring (setting [10]) was 100% in each case. For the same molecule, the inhibition at 4 µg/mL in the data set with rat aorta ring (setting [6]) and in the data set on rat aorta ring (setting [11]) was 100% in each case. For the same molecule, the inhibition at 10 µg/mL in the data set with rat aorta ring (setting [13]) and in the data set with rat aorta ring (setting [12]) was 100% throughout. Also, the concentration for half-maximal inhibition (IC50) in the data set with HUVEC [2] (Homo sapiens) turned out to be 280 ± 220 nM; in the data set with HUVEC [3] it was 410 ± 30 nM; in the data set on HUVEC [4] it was 620 ± 250 nM.
`CC(C)c1cccc(C(C)C)c1NC(=O)c1ccccc1S(=O)(=O)Nc1c(C(C)C)cccc1C(C)C` [Example 1, N-(2,6,-Diisopropylphenyl)-2-(2,6-diisopropylphenylsulfamoyl)-benzamide]: the “Growth Inhibition % (Day)” value in the data set on rat aorta ring (4 μg/mL, day 7) is 100 (7) %; in the data set with rat aorta ring (4 μg/mL, day 14) it was 100 (14) %; with rat aorta ring (20 μg/mL, day 7) it was 98 (7) %; in the data set with rat aorta ring (20 μg/mL, day 14), 98 (14) %; in the data set on rat aorta ring (50 μg/mL, day 7), 100 (7) %; in the data set on rat aorta ring (50 μg/mL, day 14), 100 (14) %. The “% Cytotoxicity” value in data set [5] was 94%. Also, it took 2400 ± 500 nM to reach half-maximal inhibition in the data set with HUVEC [2] (IC50).
As for `O=C(Nc1ccccc1)c1ccccc1S(=O)(=O)Nc1ccccc1` [Example 2, N-Phenyl-2-phenylsulfamoylbenzamide], the inhibition at 4 µg/mL in the data set with rat aorta ring (setting [8]) is 50%. Besides, the inhibition at 20 µg/mL in the data set on rat aorta ring (Rattus norvegicus, 120 h, 20 μg/mL, day 5, read-out: Growth Inhibition % (Day)) turned out to be 90%. In the data set with rat aorta ring (Rattus norvegicus, 120 h, 50 μg/mL, day 5, read-out: Growth Inhibition % (Day)), the inhibition at 50 µg/mL stood at 70%.
For `COc1ccc(NS(=O)(=O)c2ccccc2S(=O)(=O)Nc2ccc(OC)cc2)cc1` [Example 12, Benzene-1,2-disulfonic acid bis-[(4-methoxyphenyl)-amide]], in the data set with rat aorta ring (setting [12]), the inhibition at 10 µg/mL was found to be 20%. Also, the values for the IC50 with HUVEC [2] (Homo sapiens), in the data set with HUVEC [3] and in the data set with HUVEC [4] were > 75000 nM, > 50000 nM and 2300 nM, respectively.

For the origin of these results see US20050038248A1, “Chemotherapeutic agents” (priority 2001, published 2005).
